Experimental data reported in patent US10441681B2, “Materials and methods for nerve grafting” (University of Florida Research Foundation, Inc., priority 2001, dated 2019).

Key:
CSPG = CSPG neoepitope immunostaining of human nerve segments treated with chondroitinase
Method: Axonal regeneration was assessed by GAP-43 immunofluorescence and digital image analysis. Tissue sections mounted on slides were washed with PBS and then treated with 0.5% Triton X-100 in PBS for 10 min. The sections were treated with blocking buffer (10% serum in PBS+0.1% Triton X-100) and then incubated overnight at 4° C. with primary antibodies (diluted in blocking buffer). Bound antibodies were labeled with swine anti-rabbit immunoglobulins (DAKO CORPORATION, Carpinteria, Calif.) or goat anti-mouse immunoglobulins (Sigma) FITC-conjugated secondary antibodies for 1 h at room temperature in darkness. The anti-mouse secondary antibody was preadsorbed with rat serum prior to use. The sections were washed, postfixed with 4% paraformaldehyde in PBS, rinsed, and coverslipped in fluorescent mounting media. Affinity-purified rabbit anti-GAP-43 peptide antibody was produced using known methods (Ferguson T A et al. [2000] Mol Cell Neurosci, 16:157-167) and was used at 2 μg/ml. Polyclonal antibody 1918 (CHEMICON INTERNATIONAL, Temecula, Calif.) (1:1000) binds only to the unsaturated disaccharide unit that remains attached to the linkage region of CSPG core protein exposed by digestion with chondroitinase ABC (Bertolotto A et al. [1986] J Neurol Sci 73:233-244). Polyclonal anti-EHS laminin antibody (Sigma) (1:1000) was used to label basal laminae. […]

rat sciatic nerve [1] = assay: Human-to-rat acellular nerve xenograft model (GAP-43 axonal profiles); format: in vivo; conditions: 8-day acellular human nerve grafts in rat, 2 host rats
Method: In the following experiments, the hypothesis that chondroitinase treatment improves nerve regeneration through acellular human nerve grafts in a rat xenograft model was tested. Subunits (individual fascicles) taken from human nerves were treated en bloc with vehicle or chondroitinase ABC. Ten-mm interpositional nerve grafts were joined to the rat host sciatic nerve by epineurial neurorrhaphy reinforced with fibrin glue. Each of 2 host rats received bilateral grafts, one vehicle-treated and one chondroitinase-treated graft. Regeneration was initially examined after 8 days. Axonal growth was assessed at specified spatial intervals within the graft by scoring GAP-43-immunopositive profiles in transverse sections.

rat sciatic nerve [2] = assay: Axonal regeneration into acellular interpositional nerve grafts (GAP-43 profiles); format: in vivo
Description: Adult (180-200 g) female SPRAGUE DAWLEY rats (HARLAN, Indianapolis, Ind.) were used as nerve donors and recipient hosts. Donor rats were anesthetized with halothane and decapitated. Sciatic nerves were exposed through a gluteal muscle-splitting incision and isolated free of underlying fascia. A 15-mm nerve segment was excised rostral to the bifurcation into common peroneal and tibial nerves. The segments were rinsed with cold sterile Ringer's solution, stabilized by pinning the ends to a thin plastic support, and transferred to a cryogenic vial. The vials were submerged in liquid nitrogen for 2 minutes and then transferred to a 37° C. water bath for 2 minutes. This freeze/thaw cycle was repeated, yielding acellular nerve grafts that were then stored in liquid nitrogen. On the day before grafting, the nerve grafts were warmed to room temperature and incubated in 100 μl phosphate buffered saline pH 7.4 (PBS) containing 2 units/ml chondroitinase ABC (SIGMA, St. Louis, Mo.) or in PBS (vehicle) only for 16 hours at 37° C. The grafts were rinsed twice with Ringer's and kept on ice prior to use. The chondroitinase ABC preparation was highly purified and stated by the manufacturer to be essentially free of protease activity.
Twelve rats received bilateral acellular nerve grafts, one chondroitinase-treated and one vehicle-treated graft. Host rats were deeply anesthetized using xylazine (15 mg/kg, i.m.) and ketamine (110 mg/kg, i.p.). The sciatic nerve was exposed and supported by a plastic insert placed between the nerve and underlying tissue. The region of nerve halfway between the sciatic notch and bifurcation was first coated with fibrin glue. Using serrated scissors, a 2.5-mm segment of host nerve was excised and replaced with a freshly trimmed 10-mm acellular nerve graft. The graft was coapted to the host nerve stumps by epineurial neurorrhaphy using one 9-0 ETHILON suture at each end. […] The muscle was closed with 4-0 sutures and the skin with wound clips. After recovery from the anesthetic, animals were returned to standard housing.
Nine rats were terminated at 8 days and four at 4 days after grafting. Animals were deeply anesthetized and decapitated. The graft and 3 mm of proximal and distal host nerve were removed, immersed in 4% paraformaldehyde in 0.1 M phosphate buffer (pH 7.4) overnight at 4° C. The specimens were equilibrated with PBS and immersed in 30% sucrose/phosphate buffer for 2 days at 4° C. […]
The main grafts were sectioned serially on the transverse plane in recorded measure to assess the extent of axonal growth by microscopy. […] GAP-43-positive axon profiles were scored using IMAGE-PRO PLUS software (MEDIA CYBERNETICS, Silver Springs, Md.). […]

## chondroitinase ABC
CSPG
  CSPG side chain degradation (neoepitope labeling): effectively degraded
Rat sciatic nerve [1]
  average number of axons (GAP-43-immunopositive profiles) entering grafts vs control grafts: more than three-fold greater
Rat sciatic nerve [2]; 4-day grafts, 0.3 mm from the host-graft interface, 3 animals
  axonal penetration vs vehicle-treated grafts: five-fold greater
Rat sciatic nerve [2]; 8-day acellular syngrafts, en bloc treated, n=9
  average number of axons (GAP-43-immunopositive profiles) entering grafts vs control grafts: more than three-fold greater
Rat sciatic nerve [2]; 8-day grafts
  number of axons at the distal ends of grafts vs control: a similar number of axons
Rat sciatic nerve [2]; 8-day grafts, GAP-43/laminin double label
  propensity of axons to grow within basal laminae: unaltered
